Test results reported in patent US20240150339A1, “Compounds and Their Use as PDE4 Activators” (Mironid Limited, priority 2021, published 2024).

What was measured:
m-IMCD3 cells = test: Inhibition of PGE2-stimulated in vitro cyst formation in 3D culture of m-IMCD3 cells; format: cell-based, mouse; conditions: Mus musculus, mIMCD3, 144 h; 10 μM test compound; mean cyst area (%) compared to 100% for (DMSO + PGE2) and 0% for DMSO control; 100 nM PGE2; 6 days; read-out: % Cyst area after incubation with 10 μM test compound
How it was run: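 Mouse m-IMCD3 cells grown in 3D collagen I/Matrigel gels. From 18-24 h after plating, compound (0.1% DMSO) plus 100 nM PGE2 were added and replenished at 2-3 days. After 6 days, imaging gave mean cyst area, scaled to 100% for DMSO+PGE2 and 0% for DMSO alone.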

PDE4D5 = target: T1, PDE4D5 (Homo sapiens, UniProt Q08499); test: PDE assay, activation of full-length human PDE4D5 long form ([3H]cAMP radio-assay); format: biochemical; conditions: 30 μM test compound; mean % increase in counts over basal activity
T1 construct: Using Full-Length Human PDE4 Isoforms: Long Forms PDE4D5, PDE4C3, PDE4B1 and Short Form PDE4B2; made in house; cytosol fraction of the cell lysate, not purified
T1 sequence (Q08499 1-745 isoform Q08499-6): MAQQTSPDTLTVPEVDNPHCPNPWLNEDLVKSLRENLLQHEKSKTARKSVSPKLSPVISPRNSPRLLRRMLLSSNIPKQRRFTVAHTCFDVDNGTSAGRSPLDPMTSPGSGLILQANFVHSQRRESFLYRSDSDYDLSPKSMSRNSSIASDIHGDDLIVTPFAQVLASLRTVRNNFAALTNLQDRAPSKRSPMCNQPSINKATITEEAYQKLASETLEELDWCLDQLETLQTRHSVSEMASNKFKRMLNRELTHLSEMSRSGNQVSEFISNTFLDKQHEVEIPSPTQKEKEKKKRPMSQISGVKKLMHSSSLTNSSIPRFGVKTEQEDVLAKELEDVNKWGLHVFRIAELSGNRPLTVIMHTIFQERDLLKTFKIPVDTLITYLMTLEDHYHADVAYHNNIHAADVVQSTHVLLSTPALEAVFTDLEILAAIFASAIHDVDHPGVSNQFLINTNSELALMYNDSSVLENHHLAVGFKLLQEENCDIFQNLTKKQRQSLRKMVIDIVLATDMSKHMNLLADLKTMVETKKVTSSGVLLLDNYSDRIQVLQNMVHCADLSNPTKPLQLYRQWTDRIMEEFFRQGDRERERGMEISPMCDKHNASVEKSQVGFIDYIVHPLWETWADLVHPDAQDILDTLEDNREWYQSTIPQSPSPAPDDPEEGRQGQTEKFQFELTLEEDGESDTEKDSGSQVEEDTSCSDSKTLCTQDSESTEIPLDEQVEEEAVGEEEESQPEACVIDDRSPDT
Excerpt: (§1) Experiment 1: Measurement of Modulation of Enzyme Activity by PDE4 Long Form Activators of the Present Invention Using Full-Length Human PDE4 Isoforms: Long Forms PDE4D5, PDE4C3, PDE4B1 and Short Form PDE4B2
(§2) (Marchmont, R. J. and Houslay, M. D. Biochem. J. 187: 381-92, 1980)
(§3) For transient transfection of exogenous PDE4 long isoforms, HEK 293 cells were transfected with pcDNA3.1 or pDEST™ PDE4 expression vectors using Lipofectamine LTX/Plus reagent (Invitrogen) as outlined by the manufacturer.
(§4) Where stable cell lines were generated the clonal isolates were expanded to obtain cell lines that stably expressed the full-length human PDE4 long isoforms and the full length human PDE4B2 short isoform. These were called the HEK-PDE4D5, HEK-PDE4B1 and HEK-PDE4B2 cell lines, respectively.
(§5) HEK-PDE4D5 cells were seeded out in 100 mm plates and incubated at 37° C. in an atmosphere of 5% CO2, 95% air. Cell lysates were prepared using KHEM buffer [50 mM KCl, 10 mM EGTA, 50 mM HEPES (pH 7.2), 1.92 mM MgCl2].
(§6) To prepare the cell lysates, the 100 mm plates containing the cells were placed on ice and washed with ice-cold PBS (phosphate buffered saline, pH 7.4). KHEM buffer (500 μl) was added to the cells. Cells were then scraped off the plate and triturated using a needle (BD Microlance™ 0.8, 40 mm). The lysed cells were then centrifuged at 2000 rpm for 10 minutes to remove cell debris and the supernatant (cell lysate containing recombinant PDE4D5) was transferred to a fresh tube and kept on ice.
(§7) The cell lysate containing recombinant PDE4D5 was transferred into a centrifuge tube and placed into an ultracentrifuge (BECKMAN COULTER) and spun at high speed (100,000 g) for 30 minutes at 4° C. The cytosol fraction was then collected and its protein amount determined using a BCA protein assay.
(§8) PDE assays were performed in thin walled V-bottomed 96-well plates. The assays were performed at a final concentration of 10 mM Tris/5 mM MgCl2 μlus PDE4D5 cell lysate cytosol fraction, containing over-expressed PDE4D5, with and without test compound. The lysate/compound mix were incubated together for 15 min at room temperature on an orbital shaker prior to addition of [^3H] cAMP (final concentration 1 μM [^3H] cAMP; Perkin Elmer) to a final volume of 50 μl per reaction. The reactions were then incubated for 10 minutes at 30° C., terminated by heating for 2 min at 95° C. and allowed to cool. Snake venom (12.5 μl of 1 mg/ml; Crotalus atrox, Sigma) was then added and the plates were agitated and incubated for a further 15 minutes at 30° C. Dowex ion exchange resin (Sigma, chloride form, 200-400 mesh; 200 μl; prepared as a 1:1 Dowex: water stock, thoroughly re-suspended and diluted 2:1 with ethanol) was then added to each well and the plates incubated for 15 min at room temperature on an orbital shaker ensuring sufficient agitation for resin suspension (550 RPM). The reaction mixture was then transferred to a 96 well filter plate (Millipore; […] pore size) and filtered into a receiving 96-well plate to remove the dowex suspension. 30 μL of the filtered solution was then transferred to the wells of an Opti-plate (Perkin Elmer) 96 well assay plate and 120 μl of Microscint 40 scintillation fluid was added. The plate was then placed on an orbital shaker for 10 min at high speed (900 RPM) to mix the sample with scintillation fluid prior to quantitation using a plate based scintillation counter (Top-Count).
(§9) The % increase in counts in the presence of test compound at a particular concentration indicates the % increase in enzyme activity at that concentration.

PDE4C3 = target: T2, PDE4C3 (Homo sapiens, UniProt Q08493); test: PDE assay, activation of full-length human PDE4C3 long form ([3H]cAMP radio-assay); format: biochemical; conditions: 30 μM test compound; mean % increase in counts over basal activity
T2 construct: Using Full-Length Human PDE4 Isoforms: Long Forms PDE4D5, PDE4C3, PDE4B1 and Short Form PDE4B2; made in house; host or cells: HEK 293 transfected with pcDNA3.1 or pDEST PDE4 expression vector; cytosol fraction of the lysate by analogy to PDE4D5
T2 sequence (Q08493 1-680 isoform Q08493-3): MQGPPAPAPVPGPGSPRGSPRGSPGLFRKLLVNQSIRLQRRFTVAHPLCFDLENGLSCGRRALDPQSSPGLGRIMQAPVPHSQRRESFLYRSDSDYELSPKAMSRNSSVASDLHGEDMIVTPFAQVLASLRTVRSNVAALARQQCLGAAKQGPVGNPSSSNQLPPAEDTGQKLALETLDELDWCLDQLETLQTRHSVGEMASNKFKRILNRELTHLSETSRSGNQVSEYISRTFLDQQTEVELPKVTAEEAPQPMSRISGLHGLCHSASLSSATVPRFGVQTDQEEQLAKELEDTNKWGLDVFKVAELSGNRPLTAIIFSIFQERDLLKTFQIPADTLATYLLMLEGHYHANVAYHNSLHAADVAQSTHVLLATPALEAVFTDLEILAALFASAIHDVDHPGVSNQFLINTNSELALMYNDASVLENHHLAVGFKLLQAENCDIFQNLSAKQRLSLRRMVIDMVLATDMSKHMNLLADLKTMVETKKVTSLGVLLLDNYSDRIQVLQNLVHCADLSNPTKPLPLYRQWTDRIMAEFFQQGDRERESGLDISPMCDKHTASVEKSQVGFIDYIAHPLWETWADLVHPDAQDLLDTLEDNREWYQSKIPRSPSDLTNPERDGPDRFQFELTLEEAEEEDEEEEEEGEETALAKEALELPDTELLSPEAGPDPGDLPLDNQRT
Excerpt: as §1, §2
For transient transfection of exogenous PDE4 long isoforms, HEK 293 cells were transfected with pcDNA3.1 or pDEST™ PDE4 expression vectors using Lipofectamine LTX/Plus reagent (Invitrogen) as outlined by the manufacturer. […]
as §5, §6, §7, §8, §9

PDE4B2 = target: T3, PDE4B2 (Homo sapiens, UniProt Q07343); test: PDE assay, activity of full-length human PDE4B2 short form ([3H]cAMP radio-assay); format: biochemical; conditions: 30 μM test compound; mean % increase in counts over basal activity
T3 construct: the full length human PDE4B2 short isoform; made in house; cytosol fraction of the lysate by analogy to PDE4D5
T3 sequence (Q07343 1-564 isoform Q07343-2): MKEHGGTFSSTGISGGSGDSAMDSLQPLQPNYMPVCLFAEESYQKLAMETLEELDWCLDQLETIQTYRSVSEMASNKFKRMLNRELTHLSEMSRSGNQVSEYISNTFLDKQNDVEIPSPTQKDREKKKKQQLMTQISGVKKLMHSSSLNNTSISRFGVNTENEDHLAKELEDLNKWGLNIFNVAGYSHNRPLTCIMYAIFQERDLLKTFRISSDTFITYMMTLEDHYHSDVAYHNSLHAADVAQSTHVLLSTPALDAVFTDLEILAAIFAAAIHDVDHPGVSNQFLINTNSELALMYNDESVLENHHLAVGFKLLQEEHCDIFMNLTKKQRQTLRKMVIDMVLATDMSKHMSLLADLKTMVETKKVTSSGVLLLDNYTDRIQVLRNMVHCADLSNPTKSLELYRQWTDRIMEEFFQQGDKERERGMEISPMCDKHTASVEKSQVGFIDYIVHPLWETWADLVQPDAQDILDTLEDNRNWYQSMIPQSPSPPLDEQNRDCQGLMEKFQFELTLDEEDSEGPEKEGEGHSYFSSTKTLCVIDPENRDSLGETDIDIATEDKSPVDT
Excerpt: as §1, §2, §3, §4, §5, §6, §7, §8, §9

| Structure (SMILES) | activation at 30 µM (PDE4D5) | activation at 30 µM (PDE4C3) | % increase in PDE4B2 activity at 30 μM* (PDE4B2) | activity at 10 µM (m-IMCD3 cells) |
| --- | --- | --- | --- | --- |
| Cc1ncccc1-c1nc2ccc(C(=O)NCc3ccc(Cl)cc3)cc2s1 [Example 1, N-(4-chlorobenzyl)-2-(2-methylpyridin-3-yl)benzo[d]thiazole-6-carboxamide] | 48% | – | – | -7% |
| Cc1ncccc1-c1nc2ccc(C(=O)N[C@H]3CCCc4ccccc43)cc2s1 [Example 6, (S)-2-(2-methylpyridin-3-yl)-N-(1,2,3,4-tetrahydronaphthalen-1-yl)benzo[d]thiazole-6-carboxamide] | – | 38% | – | 7% |
| O=C(N[C@H]1CCOc2ccccc21)c1ccc2nc(-c3cccnc3)sc2c1 [Example 9, (S)-N-(chroman-4-yl)-2-(pyridin-3-yl)benzo[d]thiazole-6-carboxamide] | 81% | – | 3% | – |
| O=C(N[C@H]1CCOc2ccccc21)c1ccc2nc(-c3ccc(C(F)(F)F)nc3)sc2c1 [Example 25, (S)-N-(chroman-4-yl)-2-(6-(trifluoromethyl)pyridin-3-yl)benzo[d]thiazole-6-carboxamide] | 37% | – | – | 23% |
| Cc1cncc(-c2nc3ccc(C(=O)NCc4ccc(Cl)cc4)cc3s2)c1 [Example 31, N-(4-chlorobenzyl)-2-(5-methylpyridin-3-yl)benzo[d]thiazole-6-carboxamide] | – | 76% | – | – |
| Cc1cncc(-c2nc3ccc(C(=O)NCc4ccc(F)cc4)cc3s2)c1 [Example 32, N-(4-fluorobenzyl)-2-(5-methylpyridin-3-yl)benzo[d]thiazole-6-carboxamide] | – | 99% | – | 18% |
| COc1ccc(CNC(=O)c2ccc3nc(-c4cncc(C)c4)sc3c2)cc1 [Example 33, N-(4-methoxybenzyl)-2-(5-methylpyridin-3-yl)benzo[d]thiazole-6-carboxamide] | – | 82% | – | – |
| Cc1cncc(-c2nc3ccc(C(=O)NCc4cccc(F)c4)cc3s2)c1 [Example 35, N-(3-fluorobenzyl)-2-(5-methylpyridin-3-yl)benzo[d]thiazole-6-carboxamide] | – | 36% | – | – |
| Cc1cncc(-c2nc3ccc(C(=O)N[C@H]4CCc5ccccc54)cc3s2)c1 [Example 37, (S)-N-(2,3-dihydro-1H-inden-1-yl)-2-(5-methylpyridin-3-yl)benzo[d]thiazole-6-carboxamide] | – | 57% | – | – |
| Cc1cncc(-c2nc3ccc(C(=O)N[C@@H]4CCc5ccccc54)cc3s2)c1 [Example 38, (R)-N-(2,3-dihydro-1H-inden-1-yl)-2-(5-methylpyridin-3-yl)benzo[d]thiazole-6-carboxamide] | – | 32% | – | – |
| Cc1cncc(-c2nc3ccc(C(=O)N[C@@H]4c5ccccc5C[C@@H]4O)cc3s2)c1 [Example 39, N-((1R,2S)-2-hydroxy-2,3-dihydro-1H-inden-1-yl)-2-(5-methylpyridin-3-yl)benzo[d]thiazole-6-carboxamide] | – | 35% | – | – |
| Cc1cncc(-c2nc3ccc(C(=O)NC4CCCC4)cc3s2)c1 [Example 43, N-cyclopentyl-2-(5-methylpyridin-3-yl)benzo[d]thiazole-6-carboxamide] | – | 68% | – | – |
| Cc1cncc(-c2nc3ccc(C(=O)NC4CCOCC4)cc3s2)c1 [Example 46, 2-(5-methylpyridin-3-yl)-N-(tetrahydro-2H-pyran-4-yl)benzo[d]thiazole-6-carboxamide] | – | 71% | – | – |
| O=C(N[C@H]1CCOc2ccccc21)c1ccc2nc(-c3cncc(C(F)(F)F)c3)sc2c1 [Example 47, (S)-N-(chroman-4-yl)-2-(5-(trifluoromethyl)pyridin-3-yl)benzo[d]thiazole-6-carboxamide] | 102% | – | – | 12% |
| O=C(N[C@H]1CCOc2ccccc21)c1ccc2nc(-c3cncc(C4CC4)c3)sc2c1 [Example 48, (S)-N-(chroman-4-yl)-2-(5-cyclopropylpyridin-3-yl)benzo[d]thiazole-6-carboxamide] | 135% | – | – | 14% |
| CC(C)c1cncc(-c2nc3ccc(C(=O)N[C@H]4CCOc5ccccc54)cc3s2)c1 [Example 49, (S)-N-(chroman-4-yl)-2-(5-isopropylpyridin-3-yl)benzo[d]thiazole-6-carboxamide] | 131% | – | – | 9% |

Second part, led by results:

| activation at 30 µM (PDE4D5) | activation at 30 µM (PDE4C3) | % increase in PDE4B2 activity at 30 μM* (PDE4B2) | Structure (SMILES) | activity at 10 µM (m-IMCD3 cells) |
| --- | --- | --- | --- | --- |
| 51% | 58% | – | Cc1ccncc1-c1nc2ccc(C(=O)N[C@H]3CCCc4ccccc43)cc2s1 [Example 50, (S)-2-(4-methylpyridin-3-yl)-N-(1,2,3,4-tetrahydronaphthalen-1-yl)benzo[d]thiazole-6-carboxamide] | 11% |
| 87% | 112% | – | Cc1ccncc1-c1nc2ccc(C(=O)N[C@H]3CCOc4ccccc43)cc2s1 [Example 51, (S)-N-(chroman-4-yl)-2-(4-methylpyridin-3-yl)benzo[d]thiazole-6-carboxamide] | -15% |
| – | 46% | – | O=C(N[C@H]1CCOc2ccccc21)c1ccc2nc(-c3cncc(Cl)c3)sc2c1 [Example 53, (S)-2-(5-chloropyridin-3-yl)-N-(chroman-4-yl)benzo[d]thiazole-6-carboxamide] | – |
| 49% | – | – | Cc1cnccc1-c1nc2ccc(C(=O)N[C@H]3CCOc4ccccc43)cc2s1 [Example 55, (S)-N-(chroman-4-yl)-2-(3-methylpyridin-4-yl)benzo[d]thiazole-6-carboxamide] | 18% |
| 107% | – | – | Cc1cc(-c2nc3ccc(C(=O)N[C@H]4CCOc5ccccc54)cc3s2)ccn1 [Example 56, (S)-N-(chroman-4-yl)-2-(2-methylpyridin-4-yl)benzo[d]thiazole-6-carboxamide] | 10% |
| 77% | – | – | Cc1nn(C)c(C)c1-c1nc2ccc(C(=O)N[C@H]3CCOc4ccccc43)cc2s1 [Example 59, (S)-N-(chroman-4-yl)-2-(1,3,5-trimethyl-1H-pyrazol-4-yl)benzo[d]thiazoIe-6-carboxamide] | 20% |
| 124% | – | – | Cc1nn(C)cc1-c1nc2ccc(C(=O)N[C@H]3CCOc4ccccc43)cc2s1 [Example 61, (S)-N-(chroman-4-yl)-2-(1,3-dimethyl-1H-pyrazol-4-yl)benzo[d]thiazole-6-carboxamide] | 8% |
| 110% | – | – | O=C(N[C@H]1CCOc2ccccc21)c1ccc2nc(-c3cncc(C(F)F)c3)sc2c1 [Example 63, (S)-N-(chroman-4-yl)-2-(5-(difluoromethyl)pyridin-3-yl)benzo[d]thiazole-6-carboxamide] | 16% |
